This is an account of results in US7674902B2, “Luminescent metal complexes for monitoring renal function” (priority 2004, dated 2010).

The data set in a line: Biodistribution of radiolabelled DTPA complexes in normal rats, compared with 99mTc-DTPA positive control. It is filed as in vivo. Conditions: normal Sprague-Dawley rats, 111In-labelled complex; for biodistribution of the complex (comparison with reference complex): time points 15 minutes, 60 minutes, 120 minutes, 24 hours. Here is the method:
Commercially available DTPA kit (Draximage Co., Ontario, Canada) was labeled with ^99mTc by the standard procedure described in the package insert that was supplied with the kit, and was administered to Sprague-Dawley rats (3 rats for each time point of 15 minutes, 60 minutes, 120 minutes, and 24 hours).
A mixture of the stock solution of DTPA-mono(7-amino-4-methylcoumarin)amide ligand (1 mg/mL in 0.5M sodium acetate buffer, 100 μL), obtained from Gunma University, Japan (Ozaki, et. al. Reference 30), sodium acetate solution (0.5M, 100 μL), and commercially available ^111InCl3 solution (0.1M HCl, 100-200 μCi/100 μL) was adjusted to pH 4.5 and incubated at ambient temperature for 30 minutes. The resulting indium complex was purified by reverse phase HPLC and administered to Sprague-Dawley rats. The biodistribution was carried out in the same manner as that of ^99mTc-DTPA in Example 1 (FIG. 8).

For the substance “^111In-DTPA-bis(salicylamide) complex [Example 6]”, the “biodistribution of the complex (comparison with reference complex)” value (shortened to “biodistribution of the complex”) was “nearly identical to that of ^99mTc-DTPA”.
The same measure, in the same setting: as for “^111In-DTPA-mono(1-naphthylamide) complex [Example 4]”, the entry is “nearly identical to that of ^99mTc-DTPA”.
For “^111In-HMDTPA-1-naphthylurethane complex [Example 5]”, the “hepatobiliary clearance (relative to reference complex)” value was “much higher hepatobiliary clearance”.
On to “^111In-DTPA-mono(salicylamide) complex [Example 3]”, for which the “biodistribution of the complex” value is recorded as “nearly identical to that of ^99mTc-DTPA”.
Turning to “^111In-DTPA-mono(pyrazinylamino)ethylamide complex [Example 7]”, the “biodistribution of the complex” value is “nearly identical to that of ^99mTc-DTPA”.
On the same count and under the same terms, as for “^111In-DTPA-mono(quinoxanylamino)ethylamide complex [Example 8]”, the entry is “nearly identical to that of the DTPA-coumarin derivative in Example 2”.
